Assay results reported in ChEMBL document CHEMBL1201862, “PubChem BioAssay data set” (2004).
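Interpolation was linear, between the two tested concentrations surrounding the appropriate level; five concentrations were tested over 48 hours in 96-well plates. Abbreviation: GI50, concentration required for 50% inhibition of growth.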 Activity calls are given as the source filed them. No stated cut-off is given here; in the data, active = GI50 up to about 1.1 µM and inactive = higher.

Tests used:
Test in all cases: inhibition of tumour cell growth, NCI panel, 48 h
[1] = tested on: TK-10
[2] = tested on: HT-29
[3] = tested on: NCI-H522
[4] = tested on: NCI-H460
[5] = tested on: UACC-62
[6] = tested on: COLO 205
[7] = tested on: SF-295
[8] = tested on: HOP-62
[9] = tested on: SF-268
[10] = tested on: RPMI-8226
[11] = tested on: UACC-257
[12] = tested on: K562
[13] = tested on: MDA-MB-435
[14] = tested on: 786-0
[15] = tested on: CAKI-1
[16] = tested on: EKVX
[17] = tested on: RXF 393
[18] = tested on: SNB-19
[19] = tested on: Hs-578T
[20] = tested on: DU-145
[21] = tested on: HCT-116
[22] = tested on: SN12C
[23] = tested on: Malme-3M
[24] = tested on: OVCAR-5
[25] = tested on: A549
[26] = tested on: SK-MEL-28
[27] = tested on: BT-549
[28] = tested on: M14
[29] = tested on: SR
[30] = tested on: MCF7
[31] = tested on: OVCAR-4
[32] = tested on: PC-3
[33] = tested on: LOX IMVI
[34] = tested on: SK-OV-3
[35] = tested on: CCRF-CEM
[36] = tested on: ACHN
[37] = tested on: KM12
[38] = tested on: NCI-H226
[39] = tested on: HCT-15
[40] = tested on: SW-620
[41] = tested on: NCI/ADR-RES
[42] = tested on: IGROV-1
[43] = tested on: MOLT-4
[44] = tested on: SK-MEL-5
[45] = tested on: SNB-75
[46] = tested on: SK-MEL-2
[47] = tested on: OVCAR-8
[48] = tested on: OVCAR-3
[49] = tested on: MDA-MB-231
[50] = tested on: A498
[51] = tested on: U-251
[52] = tested on: T47D
[53] = tested on: HCC 2998
[54] = tested on: UO-31
[55] = tested on: MDA-N
[56] = tested on: SF-539
[57] = tested on: HL-60
[58] = tested on: NCI-H23

## NNC1=Nc2ccc(Cl)cc2C(=S)N2CSCC12 (configuration not stated)
[1]
  GI50: > 100 µM (inactive)
[2]
  GI50: > 100 µM (inactive)
[3]
  GI50: > 100 µM (inactive)
[4]
  GI50: > 100 µM (inactive)
[5]
  GI50: > 100 µM (inactive)
[6]
  GI50: > 100 µM (inactive)
[7]
  GI50: > 100 µM (inactive)
[8]
  GI50: > 100 µM (inactive)
[9]
  GI50: > 100 µM (inactive)
[10]
  GI50: > 100 µM (inactive)
[11]
  GI50: > 100 µM (inactive)
[12]
  GI50: > 100 µM (inactive)
[13]
  GI50: > 100 µM (inactive)
[14]
  GI50: > 100 µM (inactive)
[15]
  GI50: > 100 µM (inactive)
[16]
  GI50: > 100 µM (inactive)
[17]
  GI50: > 100 µM (inactive)
[18]
  GI50: > 100 µM (inactive)
[19]
  GI50: > 100 µM (inactive)
[20]
  GI50: > 100 µM (inactive)
[21]
  GI50: > 100 µM (inactive)
[22]
  GI50: > 100 µM (inactive)
[23]
  GI50: > 100 µM (inactive)
[24]
  GI50: > 100 µM (inactive)
[25]
  GI50: > 100 µM (inactive)
[26]
  GI50: > 100 µM (inactive)
[27]
  GI50: > 100 µM (inactive)
[28]
  GI50: > 100 µM (inactive)
[29]
  GI50: > 100 µM (inactive)
[30]
  GI50: > 100 µM (inactive)
[31]
  GI50: > 100 µM (inactive)
[32]
  GI50: > 100 µM (inactive)
[33]
  GI50: > 100 µM (inactive)
[34]
  GI50: > 100 µM (inactive)
[35]
  GI50: > 100 µM (inactive)
[36]
  GI50: > 100 µM (inactive)
[37]
  GI50: 34.6 µM (inactive)
[38]
  GI50: > 100 µM (inactive)
[39]
  GI50: > 100 µM
[40]
  GI50: > 100 µM (inactive)
[41]
  GI50: > 100 µM (inactive)
[42]
  GI50: > 100 µM (inactive)
[43]
  GI50: > 100 µM (inactive)
[44]
  GI50: > 100 µM (inactive)
[45]
  GI50: > 100 µM (inactive)
[46]
  GI50: > 100 µM (inactive)
[47]
  GI50: > 100 µM (inactive)
[48]
  GI50: > 100 µM (inactive)
[49]
  GI50: > 100 µM (inactive)
[50]
  GI50: > 100 µM (inactive)
[51]
  GI50: > 100 µM (inactive)
[52]
  GI50: > 100 µM (inactive)
[53]
  GI50: > 100 µM (inactive)
[54]
  GI50: > 100 µM (inactive)
[55]
  GI50: > 100 µM (inactive)

## Nc1ccc2nc3n(c2c1)C(c1c(F)cccc1F)SC3 (configuration not stated)
[1]
  GI50: > 100 µM (inactive)
[2]
  GI50: > 100 µM (inactive)
[3]
  GI50: > 100 µM (inactive)
[4]
  GI50: > 100 µM (inactive)
[5]
  GI50: > 100 µM (inactive)
[6]
  GI50: > 100 µM (inactive)
[56]
  GI50: > 100 µM (inactive)
[7]
  GI50: 98.9 µM (inactive)
[8]
  GI50: > 100 µM (inactive)
[9]
  GI50: > 100 µM (inactive)
[10]
  GI50: 66.5 µM (inactive)
[11]
  GI50: 89.1 µM (inactive)
[12]
  GI50: 85.5 µM (inactive)
[13]
  GI50: > 100 µM (inactive)
[14]
  GI50: > 100 µM (inactive)
[57]
  GI50: 45.3 µM (inactive)
[15]
  GI50: > 100 µM (inactive)
[16]
  GI50: > 100 µM (inactive)
[17]
  GI50: > 100 µM (inactive)
[18]
  GI50: > 100 µM (inactive)
[19]
  GI50: > 100 µM (inactive)
[20]
  GI50: > 100 µM (inactive)
[21]
  GI50: > 100 µM (inactive)
[22]
  GI50: > 100 µM (inactive)
[23]
  GI50: > 100 µM (inactive)
[24]
  GI50: > 100 µM (inactive)
[25]
  GI50: > 100 µM (inactive)
[26]
  GI50: > 100 µM (inactive)
[27]
  GI50: > 100 µM (inactive)
[28]
  GI50: > 100 µM (inactive)
[29]
  GI50: > 100 µM (inactive)
[30]
  GI50: > 100 µM (inactive)
[31]
  GI50: > 100 µM (inactive)
[32]
  GI50: > 100 µM (inactive)
[33]
  GI50: > 100 µM (inactive)
[34]
  GI50: > 100 µM (inactive)
[35]
  GI50: 68.2 µM (inactive)
[36]
  GI50: > 100 µM (inactive)
[37]
  GI50: > 100 µM (inactive)
[39]
  GI50: > 100 µM
[58]
  GI50: > 100 µM (inactive)
[40]
  GI50: > 100 µM (inactive)
[41]
  GI50: > 100 µM (inactive)
[42]
  GI50: > 100 µM (inactive)
[43]
  GI50: 38.1 µM (inactive)
[44]
  GI50: 41 µM (inactive)
[45]
  GI50: 80.4 µM (inactive)
[46]
  GI50: > 100 µM (inactive)
[47]
  GI50: > 100 µM (inactive)
[48]
  GI50: > 100 µM (inactive)
[49]
  GI50: > 100 µM (inactive)
[50]
  GI50: > 100 µM (inactive)
[51]
  GI50: > 100 µM (inactive)
[52]
  GI50: > 100 µM (inactive)
[53]
  GI50: > 100 µM (inactive)
[54]
  GI50: 72.6 µM (inactive)
[55]
  GI50: > 100 µM (inactive)
